Assay results taken from patent US20080096924A1, “Amorphous Composition” (ONO PHARMACEUTICAL CO., LTD., priority 2004, published 2008).
In brackets after ≈: the same amount, converted by molar mass.

Columns and labels:
N-type calcium channel = N-type calcium channel (Homo sapiens, UniProt Q00975); conditions: refer to Patent Document 1; cited from earlier work
CYP3A4 = CYP3A4 (Homo sapiens, UniProt P08684); assay: Metabolism by metabolic enzyme
Solubility in water = type: physicochemical; conditions: crystals of compound (I) vs spray-dried amorphous powder with HPMCAS
[1] = Bioavailability on oral administration; conditions: in vivo, orally administered, read-out: bioavailability (BA)

Chain of N-type calcium channel (Q00975 whole entry): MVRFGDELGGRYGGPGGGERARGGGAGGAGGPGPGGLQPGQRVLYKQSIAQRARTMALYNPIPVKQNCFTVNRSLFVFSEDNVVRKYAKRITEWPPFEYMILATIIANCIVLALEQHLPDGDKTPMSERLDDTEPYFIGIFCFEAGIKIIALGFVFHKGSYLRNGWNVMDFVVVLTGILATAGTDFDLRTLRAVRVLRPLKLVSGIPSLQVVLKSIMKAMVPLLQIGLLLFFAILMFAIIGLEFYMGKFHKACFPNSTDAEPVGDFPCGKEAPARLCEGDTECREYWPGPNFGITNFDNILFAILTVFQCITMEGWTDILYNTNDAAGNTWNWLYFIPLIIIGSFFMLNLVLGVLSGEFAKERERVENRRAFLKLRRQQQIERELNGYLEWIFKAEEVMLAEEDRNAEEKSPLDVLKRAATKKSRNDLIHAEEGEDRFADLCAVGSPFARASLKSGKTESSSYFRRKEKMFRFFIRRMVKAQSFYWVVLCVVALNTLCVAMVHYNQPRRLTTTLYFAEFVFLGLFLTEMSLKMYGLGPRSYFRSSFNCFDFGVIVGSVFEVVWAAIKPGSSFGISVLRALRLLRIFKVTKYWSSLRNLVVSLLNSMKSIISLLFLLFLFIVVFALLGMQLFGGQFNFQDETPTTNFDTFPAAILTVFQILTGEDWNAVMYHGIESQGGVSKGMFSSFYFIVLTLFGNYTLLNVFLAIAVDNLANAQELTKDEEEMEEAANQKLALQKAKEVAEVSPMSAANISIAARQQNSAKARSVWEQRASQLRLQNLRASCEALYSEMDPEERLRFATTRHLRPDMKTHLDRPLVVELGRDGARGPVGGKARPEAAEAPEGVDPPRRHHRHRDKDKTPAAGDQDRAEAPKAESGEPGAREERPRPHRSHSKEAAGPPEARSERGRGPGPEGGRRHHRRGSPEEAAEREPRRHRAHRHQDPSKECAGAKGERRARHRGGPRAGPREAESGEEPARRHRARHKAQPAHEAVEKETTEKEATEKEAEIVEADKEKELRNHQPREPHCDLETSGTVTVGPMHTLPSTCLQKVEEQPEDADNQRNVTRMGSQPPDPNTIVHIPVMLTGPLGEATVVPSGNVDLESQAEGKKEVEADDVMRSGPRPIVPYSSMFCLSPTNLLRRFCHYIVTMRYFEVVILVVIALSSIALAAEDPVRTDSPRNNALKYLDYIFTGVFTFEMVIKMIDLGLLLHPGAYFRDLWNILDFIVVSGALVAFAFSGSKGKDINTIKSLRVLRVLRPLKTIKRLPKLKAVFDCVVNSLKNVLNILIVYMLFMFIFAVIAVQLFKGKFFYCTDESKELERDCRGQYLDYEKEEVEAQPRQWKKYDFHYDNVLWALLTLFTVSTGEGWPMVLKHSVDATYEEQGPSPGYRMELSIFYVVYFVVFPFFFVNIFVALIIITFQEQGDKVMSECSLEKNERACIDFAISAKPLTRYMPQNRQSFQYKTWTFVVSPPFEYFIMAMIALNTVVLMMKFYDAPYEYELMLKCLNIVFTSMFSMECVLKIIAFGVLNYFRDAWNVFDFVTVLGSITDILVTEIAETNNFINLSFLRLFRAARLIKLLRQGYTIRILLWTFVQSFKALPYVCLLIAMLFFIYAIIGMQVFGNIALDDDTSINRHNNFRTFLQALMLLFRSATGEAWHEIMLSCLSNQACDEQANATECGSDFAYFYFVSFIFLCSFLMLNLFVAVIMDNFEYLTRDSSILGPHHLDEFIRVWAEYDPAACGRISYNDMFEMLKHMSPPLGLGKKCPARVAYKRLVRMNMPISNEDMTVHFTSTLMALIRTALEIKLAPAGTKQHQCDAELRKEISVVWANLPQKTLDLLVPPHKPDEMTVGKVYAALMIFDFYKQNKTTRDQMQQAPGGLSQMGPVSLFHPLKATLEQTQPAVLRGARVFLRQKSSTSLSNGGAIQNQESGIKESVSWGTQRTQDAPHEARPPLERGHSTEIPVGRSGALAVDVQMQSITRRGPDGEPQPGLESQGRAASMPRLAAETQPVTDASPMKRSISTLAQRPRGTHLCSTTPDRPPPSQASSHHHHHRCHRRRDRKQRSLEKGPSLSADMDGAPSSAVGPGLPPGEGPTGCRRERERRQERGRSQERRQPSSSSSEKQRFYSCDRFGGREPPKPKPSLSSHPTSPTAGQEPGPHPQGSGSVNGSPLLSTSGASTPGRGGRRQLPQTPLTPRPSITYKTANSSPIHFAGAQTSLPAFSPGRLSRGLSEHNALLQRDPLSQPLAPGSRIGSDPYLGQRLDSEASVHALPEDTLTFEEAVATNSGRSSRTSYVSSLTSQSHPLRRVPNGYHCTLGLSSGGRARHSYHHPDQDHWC
Chain of CYP3A4 (P08684 whole entry): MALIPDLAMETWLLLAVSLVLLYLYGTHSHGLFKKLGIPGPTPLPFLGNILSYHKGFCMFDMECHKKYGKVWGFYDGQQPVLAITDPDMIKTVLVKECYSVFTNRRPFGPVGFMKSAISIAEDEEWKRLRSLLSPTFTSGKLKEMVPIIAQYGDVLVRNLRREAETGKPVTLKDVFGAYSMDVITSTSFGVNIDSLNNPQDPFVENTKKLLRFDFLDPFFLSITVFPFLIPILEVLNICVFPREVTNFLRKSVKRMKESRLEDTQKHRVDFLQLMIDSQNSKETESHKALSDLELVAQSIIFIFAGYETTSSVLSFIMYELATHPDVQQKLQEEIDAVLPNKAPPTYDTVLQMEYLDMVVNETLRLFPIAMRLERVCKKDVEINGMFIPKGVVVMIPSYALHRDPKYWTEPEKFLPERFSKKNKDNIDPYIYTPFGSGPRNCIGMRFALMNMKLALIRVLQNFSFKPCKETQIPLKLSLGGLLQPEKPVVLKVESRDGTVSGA

## CC(C)(C)OC(=O)N1CSC[C@H]1C(=O)N[C@@H](CSCC1CCCCC1)C(=O)NC1CCN(Cc2ccccc2)CC1 [compound (I), (2R)—N-(1-benzylpiperidin-4-yl)-3-cyclohexylmethylthio-2-[(4R)-3-tert-butoxycarbonylthiazolidin-4-ylcarbonylamino]propaneamide]
N-type calcium channel
  N-type calcium channel inhibiting activity: N-type calcium channel inhibiting activity
CYP3A4
  metabolic enzyme: metabolized by CYP3A4
Solubility in water
  solubility: ~1.25 µg/mL (≈ 2.07 µM)
[1]
  bioavailability: ~0.2%
